From patent publication US10100058B2, “Fused heterocyclic compounds as CaM kinase inhibitors” (Gilead Sciences, Inc., priority 2016, dated 2018)

Target: recombinant CaMKIIδ (Homo sapiens (Human), UniProt Q13557)
Test: CaMKIIδ biochemical assay (HTRF)
Conditions: 10 pM CaMKIIδ, 110 nM calmodulin, 12 μM ATP, 1 hour; read-out: CAMKIID-HTRF-384V2 (IC50 - nM)
Experimental: CaMKIIδ Biochemical Assay
The biochemical activity of recombinant CaMKIIδ was measured by monitoring the phosphorylation of a target peptide using Homogenous Time Resolved Fluorescence (HTRF) technology from CisBio Bioassays.

| SMILES | IC50 [nM] |
| --- | --- |
| COc1cc(C(=O)N2CCCC[C@H]2CN)cc(-c2cnn3ccc(-c4ccccc4)nc23)n1 [Example 134, (S)-(2-(aminomethyl)piperidin-1-yl)(2-methoxy-6-(5-phenylpyrazolo[1,5-a]pyrimidin-3-yl)pyridin-4-yl)methanone] | 303 |
| CN(C)c1cc(C(=O)N2CCCC[C@H]2CN)cc(-c2cnn3ccc(-c4ccccc4)nc23)n1 [Example 135, (S)-(2-(aminomethyl)piperidin-1-yl)(2-(dimethylamino)-6-(5-phenylpyrazolo[1,5-a]pyrimidin-3-yl)pyridin-4-yl)methanone] | 761 |
| Cc1cnc(-c2cnn3ccc(-c4ccccc4)nc23)cc1C(=O)N1CCCC[C@@H]1CN [Example 136, (R)-(2-(aminomethyl)piperidin-1-yl)(5-methyl-2-(5-phenylpyrazolo[1,5-a]pyrimidin-3-yl)pyridin-4-yl)methanone] | 0.84 |
| NC[C@H]1CCCCN1C(=O)c1cc(-c2cnn3ccc(-c4ccccc4)nc23)ncc1Cl [Example 137, (R)-(2-(aminomethyl)piperidin-1-yl)(5-chloro-2-(5-phenylpyrazolo[1,5-a]pyrimidin-3-yl)pyridin-4-yl)methanone] | 1.82 |
| NC[C@H]1CCCCN1C(=O)c1cc(-c2cnn3ccc(-c4ccccc4)nc23)ncc1N [Example 138, (R)-(5-amino-2-(5-phenylpyrazolo[1,5-a]pyrimidin-3-yl)pyridin-4-yl)(2-(aminomethyl)piperidin-1-yl)methanone] | 0.4 |
| CNc1cnc(-c2cnn3ccc(-c4ccccc4)nc23)cc1C(=O)N1CCCC[C@@H]1CN [Example 139, (R)-(2-(aminomethyl)piperidin-1-yl)(5-(methylamino)-2-(5-phenylpyrazolo[1,5-a]pyrimidin-3-yl)pyridin-4-yl)methanone] | 0.87 |
| Cc1cnc(-c2cnn3ccc(-c4ccccc4)nc23)cc1C(=O)N1CCCC[C@@H]1[C@@H](C)N [Example 140, ((R)-2-((R)-1-aminoethyl)piperidin-1-yl)(5-methyl-2-(5-phenylpyrazolo[1,5-a]pyrimidin-3-yl)pyridin-4-yl)methanone] | 1.91 |
| CCN(CC)[C@@H](C)CNC(=O)c1cc(-c2cnn3ccc(-c4cccs4)nc23)nc(N2CC(C(F)(F)F)C2)c1 [Example 147, (S)—N-(2-(diethylamino)propyl)-2-(5-(thiophen-2-yl)pyrazolo[1,5-a]pyrimidin-3-yl)-6-(3-(trifluoromethyl)azetidin-1-yl)isonicotinamide] | 0.34 |
| CCN(CC)[C@@H](C)CNC(=O)c1cc(-c2cnn3ccc(-c4cccs4)nc23)nc(N2CC(C)(C)C2)c1 [Example 152, (S)—N-(2-(diethylamino)propyl)-2-(3,3-dimethylazetidin-1-yl)-6-(5-(thiophen-2-yl)pyrazolo[1,5-a]pyrimidin-3-yl)isonicotinamide] | 0.59 |
| CCN(CC)[C@@H](C)CNC(=O)c1cc(-c2cnn3ccc(-c4cccs4)nc23)nc(N2CCC(O)C(F)(F)C2)c1 (stereo partly drawn) [Example 156, N—((S)-2-(diethylamino)propyl)-2-(3,3-difluoro-4-hydroxypiperidin-1-yl)-6-(5-(thiophen-2-yl)pyrazolo[1,5-a]pyrimidin-3-yl)isonicotinamide] | 0.85 |
| CCN(CC)[C@@H](C)CNC(=O)c1cc(NCCN(C)C)nc(-c2cnn3ccc(-c4ccccc4)nc23)c1 [Example 158, (S)—N-(2-(diethylamino)propyl)-2-((2-(dimethylamino)ethyl)amino)-6-(5-phenylpyrazolo[1,5-a]pyrimidin-3-yl)isonicotinamide] | 0.56 |
| COC1CN(c2cc(C(=O)NCC3(N)CCC3)cc(-c3cnn4ccc(-c5ccccc5)nc34)n2)C1 [Example 159, N-((1-aminocyclobutyl)methyl)-2-(3-methoxyazetidin-1-yl)-6-(5-phenylpyrazolo[1,5-a]pyrimidin-3-yl)isonicotinamide] | 84.6 |
| CCN(CC)[C@@H](C)CNC(=O)c1cc(-c2cnn3ccc(-c4ccccc4)nc23)nc(N2CC(OC)C2)c1 [Example 160, (S)—N-(2-(diethylamino)propyl)-2-(3-methoxyazetidin-1-yl)-6-(5-phenylpyrazolo[1,5-a]pyrimidin-3-yl)isonicotinamide] | 1.15 |
| COC1CN(c2cc(C(=O)NCC34CCCN3CCC4)cc(-c3cnn4ccc(-c5ccccc5)nc34)n2)C1 [Example 161, N-((hexahydro-1H-pyrrolizin-7a-yl)methyl)-2-(3-methoxyazetidin-1-yl)-6-(5-phenylpyrazolo[1,5-a]pyrimidin-3-yl)isonicotinamide] | 105 |
| CCN(CC)[C@@H](C)CNC(=O)c1cc(NCC2(N3CCCC3)COC2)nc(-c2cnn3ccc(-c4cccs4)nc23)c1 [Example 164, (S)—N-(2-(diethylamino)propyl)-2-(((3-(pyrrolidin-1-yl)oxetan-3-yl)methyl)amino)-6-(5-(thiophen-2-yl)pyrazolo[1,5-a]pyrimidin-3-yl)isonicotinamide] | 0.38 |

Stronger by IC50, values ahead:

| IC50 [nM] | SMILES |
| --- | --- |
| 0.32 | CCN(CC)[C@@H](C)CNC(=O)c1cc(-c2cnn3ccc(-c4cccs4)nc23)nc(N2CC(S(=O)(=O)NC3CC3)C2)c1 [Example 151, (S)-2-(3-(N-cyclopropylsulfamoyl)azetidin-1-yl)-N-(2-(diethylamino)propyl)-6-(5-(thiophen-2-yl)pyrazolo[1,5-a]pyrimidin-3-yl)isonicotinamide] |
| 0.32 | CCN(CC)[C@@H](C)CNC(=O)c1cc(-c2cnn3ccc(-c4cccs4)nc23)nc(N2CCn3ccnc3C2)c1 [Example 155, (S)—N-(2-(diethylamino)propyl)-2-(5,6-dihydroimidazo[1,2-a]pyrazin-7(8H)-yl)-6-(5-(thiophen-2-yl)pyrazolo[1,5-a]pyrimidin-3-yl)isonicotinamide] |
| 0.28 | CCN(CC)[C@@H](C)CNC(=O)c1cc(-c2cnn3ccc(-c4cccs4)nc23)nc(N2CC(NS(=O)(=O)C3CC3)C2)c1 [Example 154, (S)-2-(3-(cyclopropanesulfonamido)azetidin-1-yl)-N-(2-(diethylamino)propyl)-6-(5-(thiophen-2-yl)pyrazolo[1,5-a]pyrimidin-3-yl)isonicotinamide] |
| 0.21 | CCN(CC)[C@@H](C)CNC(=O)c1cc(-c2cnn3ccc(-c4cccs4)nc23)nc(N2CC(F)(F)C2)c1 [Example 148, (S)—N-(2-(diethylamino)propyl)-2-(3,3-difluoroazetidin-1-yl)-6-(5-(thiophen-2-yl)pyrazolo[1,5-a]pyrimidin-3-yl)isonicotinamide] |
| 0.2 | CCN(CC)[C@@H](C)CNC(=O)c1cc(-c2cnn3ccc(-c4cccs4)nc23)nc(N2CC(S(=O)(=O)NC)C2)c1 [Example 150, (S)—N-(2-(diethylamino)propyl)-2-(3-(N-methylsulfamoyl)azetidin-1-yl)-6-(5-(thiophen-2-yl)pyrazolo[1,5-a]pyrimidin-3-yl)isonicotinamide] |
| 0.19 | CCN(CC)[C@@H](C)CNC(=O)c1cc(-c2cnn3ccc(-c4cccs4)nc23)nc(N2CCC2)c1 [Example 146, (S)-2-(azetidin-1-yl)-N-(2-(diethylamino)propyl)-6-(5-(thiophen-2-yl)pyrazolo[1,5-a]pyrimidin-3-yl)isonicotinamide] |
| 0.18 | CCN(CC)[C@@H](C)CNC(=O)c1cc(-c2cnn3ccc(-c4cccs4)nc23)nc(N2CC(OC(F)F)C2)c1 [Example 144, (S)—N-(2-(diethylamino)propyl)-2-(3-(difluoromethoxy)azetidin-1-yl)-6-(5-(thiophen-2-yl)pyrazolo[1,5-a]pyrimidin-3-yl)isonicotinamide] |
| 0.18 | CCN(CC)[C@@H](C)CNC(=O)c1cc(-c2cnn3ccc(-c4cccs4)nc23)nc(N2CCC(C)(O)CC2)c1 [Example 163, (S)—N-(2-(diethylamino)propyl)-2-(4-hydroxy-4-methylpiperidin-1-yl)-6-(5-(thiophen-2-yl)pyrazolo[1,5-a]pyrimidin-3-yl)isonicotinamide] |
| 0.17 | CCOC1CN(c2cc(C(=O)NC[C@H](C)N(CC)CC)cc(-c3cnn4ccc(-c5cccs5)nc34)n2)C1 [Example 143, (S)—N-(2-(diethylamino)propyl)-2-(3-ethoxyazetidin-1-yl)-6-(5-(thiophen-2-yl)pyrazolo[1,5-a]pyrimidin-3-yl)isonicotinamide] |
| 0.14 | CCN(CC)[C@@H](C)CNC(=O)c1cc(-c2cnn3ccc(-c4cccs4)nc23)nc(N2CC(S(C)(=O)=O)C2)c1 [Example 149, (S)—N-(2-(diethylamino)propyl)-2-(3-(methylsulfonyl)azetidin-1-yl)-6-(5-(thiophen-2-yl)pyrazolo[1,5-a]pyrimidin-3-yl)isonicotinamide] |
| 0.13 | CCN(CC)[C@@H](C)CNC(=O)c1cc(-c2cnn3ccc(-c4cccs4)nc23)nc(N2CC(F)C2)c1 [Example 153, (S)—N-(2-(diethylamino)propyl)-2-(3-fluoroazetidin-1-yl)-6-(5-(thiophen-2-yl)pyrazolo[1,5-a]pyrimidin-3-yl)isonicotinamide] |
| 0.13 | CCN(CC)[C@@H](C)CNC(=O)c1cc(-c2cnn3ccc(-c4ccsc4)nc23)nc(N2CC(OC)C2)c1 [Example 165, (S)—N-(2-(diethylamino)propyl)-2-(3-methoxyazetidin-1-yl)-6-(5-(thiophen-3-yl)pyrazolo[1,5-a]pyrimidin-3-yl)isonicotinamide] |
| 0.1 | CCN(CC)[C@@H](C)CNC(=O)c1cc(-c2cnn3ccc(-c4cccs4)nc23)nc(N2CC(C#N)C2)c1 [Example 142, (S)-2-(3-cyanoazetidin-1-yl)-N-(2-(diethylamino)propyl)-6-(5-(thiophen-2-yl)pyrazolo[1,5-a]pyrimidin-3-yl)isonicotinamide] |
| 0.07 | CCN(CC)[C@@H](C)CNC(=O)c1cc(NCCN(C)C)nc(-c2cnn3ccc(-c4cccs4)nc23)c1 [Example 157, (S)—N-(2-(diethylamino)propyl)-2-((2-(dimethylamino)ethyl)amino)-6-(5-(thiophen-2-yl)pyrazolo[1,5-a]pyrimidin-3-yl)isonicotinamide] |
